According to article PMC4320118, “Micheliolide Derivative DMAMCL Inhibits Glioma Cell Growth In Vitro and In Vivo” (PLoS ONE, 2015):
Entries after “also recorded” stand apart in the source; their conditions may differ.

Test: Toxicity of DMAMCL, oral once a day for 21 days
Format: in vivo, Wistar rats
Set-up: Cr: unit not given here
Settings: for ALB / ALP / ALT / AST / CHOL / CK / Cr / GLU / TG / TP / Urea: serum
Procedure: Wistar rats (150–170 g) were divided into the following 3 groups (6 rats /group): 1) vehicle control, 2) DMAMCL at 200 mg/kg, and 3) DMAMCL at 300 mg/kg. DMAMCL was administered orally once a day for 21 days. Rats were weighed on days 0, 3, 7, 11, 14, 17, and 21. Total food intake was measured as the weight of food consumed during a 24-h period on days 3, 8, 15, and 22. On the 23rd day, rats were anesthetized and sacrificed via CO2 asphyxiation. Peripheral blood was collected for hematological and serum biochemical analyses using a blood cell counter (Medonic M16, Boule medical AB, Sweden) and a Hitachi 7180 Automatic Analyzer (Japan). Tissues samples from the liver, spleen, lung, kidney, and brain were collected and embedded in paraffin for H&E staining.

[1] = 200 mg/kg orally once a day for 21 days
[2] = 300 mg/kg orally once a day for 21 days

Structure (SMILES): CC1=C2CC[C@@](C)(O)[C@@H]2[C@H]2OC(=O)[C@@H](CN(C)C)[C@@H]2CC1 [DMAMCL, dimethylaminomicheliolide]
- GRAN% [1]: 26.5 ± 3.3%
- HCT% [1]: 35.6 ± 1.2%
- HGB [1]: 145 ± 12.3 g/L
- LYM% [1]: 71.3 ± 6.3%
- MCV [1]: 55.5 ± 1.4 fL
- MONO% [1]: 2.1 ± 0.3%
- PLT [1]: 1195 ± 87 ×10^9/L
- RBC [1]: 6.73±1.3 ×10^12/L
- RDW% [1]: 18.5 ± 1.1%
- WBC [1]: 12.5 ± 2.5 ×10^9/L
- GRAN% [2]: 26.3 ± 4.1%
- HCT% [2]: 37.7 ± 0.8%
- HGB [2]: 140 ± 11.1 g/L
- LYM% [2]: 69.9 ± 6.0%
- MCV [2]: 53.5 ± 2.3 fL
- MONO% [2]: 2.9 ± 0.9%
- PLT [2]: 1132 ± 82 ×10^9/L
- RBC [2]: 6.37 ± 1.01 ×10^12/L
- RDW% [2]: 17.8 ± 0.7%
- WBC [2]: 11.9 ± 1.3 ×10^9/L
- Toxicity (body weight, daily food intake, histopathology, hematology, serum biochemistry) (200 or 300 mg/kg orally once a day for 21 days): did not result in toxicity; also recorded: No significant changes were observed; also recorded: did not lead to toxicity
- ALB [1]: 32.5 ± 3.01 g/L
- ALP [1]: 190 ± 19 U/L
- ALT [1]: 51 ± 10 U/L
- AST [1]: 98 ± 12 U/L
- CHOL [1]: 1.39 ± 0.67 mM
- CK [1]: 423 ± 35 U/L
- Cr [1]: 79 ± 23
- GLU [1]: 5.22 ± 2.01 mM
- TG [1]: 0.81 ± 0.23 mM
- TP [1]: 61.0 ± 4.6 g/L
- Urea [1]: 6.45 ± 2.3 mM
- ALB [2]: 34 ± 1.98 g/L
- ALP [2]: 179 ± 30 U/L
- ALT [2]: 49 ± 11 U/L
- AST [2]: 111 ± 15 U/L
- CHOL [2]: 1.42 ± 0.78 mM
- CK [2]: 523 ± 101 U/L
- Cr [2]: 80 ± 17
- GLU [2]: 5.23 ± 1.34 mM
- TG [2]: 0.69 ± 0.33 mM
- TP [2]: 58.3 ± 3.3 g/L
- Urea [2]: 7.33 ± 1.02 mM
